US20250059218A1, “ENPP1 Inhibitors and Methods of Modulating Immune Response” (The Board of Trustees of the Leland Stanford Junior …, priority 2019, published 2025)
Read-outs that look alike come from different tables or passages of the source.

Tests used:
mouse ENPP1 = mouse ENPP1 (Mus musculus (Mouse), UniProt P06802); assay: ENPP1 enzyme activity assay using cGAMP as substrate (luciferase detection of AMP); type: biochemical
4T1-Luc tumors = assay: 4T1-Luc tumor mouse model (tumor volume, survival)
CD14+ PBMCs = assay: Stimulation of CD14+ PBMCs with extracellular cGAMP (IFNB1 RT-qPCR); type: cell-based, human; conditions: submicromolar soluble cGAMP
[1] = ENPP1 enzyme activity, second activity table (titled TABLE 2, Compounds; column without head), read-out: IC50

Sequence of mouse ENPP1 (P06802 85-906): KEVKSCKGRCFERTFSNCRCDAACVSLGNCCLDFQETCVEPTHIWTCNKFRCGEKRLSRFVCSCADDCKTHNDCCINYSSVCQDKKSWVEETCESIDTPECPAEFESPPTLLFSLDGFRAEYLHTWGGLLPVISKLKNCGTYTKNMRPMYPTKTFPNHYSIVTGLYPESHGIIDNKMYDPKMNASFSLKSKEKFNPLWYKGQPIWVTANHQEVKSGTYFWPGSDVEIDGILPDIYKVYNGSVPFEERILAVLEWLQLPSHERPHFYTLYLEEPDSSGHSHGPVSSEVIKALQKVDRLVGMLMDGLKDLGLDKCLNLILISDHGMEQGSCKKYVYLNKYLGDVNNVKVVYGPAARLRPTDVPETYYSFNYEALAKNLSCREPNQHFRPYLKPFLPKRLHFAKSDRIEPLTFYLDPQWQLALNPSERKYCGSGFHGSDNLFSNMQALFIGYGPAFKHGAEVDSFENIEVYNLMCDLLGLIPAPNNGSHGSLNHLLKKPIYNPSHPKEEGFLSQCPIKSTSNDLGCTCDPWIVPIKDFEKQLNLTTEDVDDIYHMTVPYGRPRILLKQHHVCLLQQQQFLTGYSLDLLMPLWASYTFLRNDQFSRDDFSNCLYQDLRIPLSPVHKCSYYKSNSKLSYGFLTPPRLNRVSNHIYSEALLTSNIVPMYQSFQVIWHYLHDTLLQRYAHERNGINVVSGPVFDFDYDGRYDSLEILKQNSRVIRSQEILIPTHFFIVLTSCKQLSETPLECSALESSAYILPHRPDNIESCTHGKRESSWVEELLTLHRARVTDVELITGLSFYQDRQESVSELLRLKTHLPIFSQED

SMILES | IC50 (mouse ENPP1) [µM] | IC50 (mouse ENPP1; [1]) [µM] | also measured
COc1cc2ncnc(Nc3ccc(CP(=O)(O)O)cc3)c2cc1OC [Compound 3] |  |  | IC50 (mouse ENPP1; ENPP1 enzyme activity, Table 4, read-out: IC50): 0.05 to 0.1 µM
COc1cc2ncnc(NCc3ccc(OP(O)(O)=S)cc3)c2cc1OC [Compound 7] | 0.05 to 0.1 |  | 
COc1ccc2ncc(C#N)c(N3CCC(CCP(=O)(O)O)CC3)c2c1 [Compounds 44] |  | 0.05 to 0.1 | 
COc1cc2ncc(C#N)c(N3CCC(CCOP(O)(O)=S)CC3)c2cc1OC [Compounds 202] | 0.05 to 0.1 |  | 
COc1cccc2c(N3CCC(CCP(=O)(O)O)CC3)c(C#N)c(/C=C\c3cccnc3)nc12 [Compounds 206] |  | > 0.1 | 
Nc1nc2c(ncn2[C@@H]2O[C@@H]3COP(=O)(O)O[C@H]4[C@@H](O)[C@H](n5cnc6c(N)ncnc65)O[C@@H]4COP(=O)(O)O[C@@H]2[C@@H]3O)c(=O)[nH]1 [cGAMP, cyclic guanosine monophosphate-adenosine monophosphate] |  |  | effect over IR treatment (4T1-Luc tumors; 20 Gy IR + intratumoral 10 μg cGAMP alone): had no effect over IR treatment; mice cured (4T1-Luc tumors; ENPP1−/− 4T1-Luc tumors, 20 Gy IR + intratumoral cGAMP, no anti-CTLA-4): 30%; IFNB1 response (CD14+ PBMCs): upregulating IFNB1
